Publication PMC8667925, “New 1,2,4-oxadiazole derivatives with positive mGlu4 receptor modulation activity and antipsychotic-like properties” (Journal of Enzyme Inhibition and Medicinal Chemistry, 2021)
“Also recorded” adds a separate entry of the source. Marks after values point to notes of the source that are not given here.

Key:
[1] = biological target: T1, mGlu8 receptor (Homo sapiens, UniProt O00222); assay: cAMP accumulation assay in cells expressing mGlu8 receptor (agonist, PAM, NAM modes); format: cell-based; conditions: 10 µM, agonist mode
T1 construct: mGlu4 receptor NM_000841, mGlu7 receptor NM_000844.2, and mGlu8 receptor NM_000845; expressed in transfected cells; host or cells: T-REx 293
T1 sequence (O00222 34-908): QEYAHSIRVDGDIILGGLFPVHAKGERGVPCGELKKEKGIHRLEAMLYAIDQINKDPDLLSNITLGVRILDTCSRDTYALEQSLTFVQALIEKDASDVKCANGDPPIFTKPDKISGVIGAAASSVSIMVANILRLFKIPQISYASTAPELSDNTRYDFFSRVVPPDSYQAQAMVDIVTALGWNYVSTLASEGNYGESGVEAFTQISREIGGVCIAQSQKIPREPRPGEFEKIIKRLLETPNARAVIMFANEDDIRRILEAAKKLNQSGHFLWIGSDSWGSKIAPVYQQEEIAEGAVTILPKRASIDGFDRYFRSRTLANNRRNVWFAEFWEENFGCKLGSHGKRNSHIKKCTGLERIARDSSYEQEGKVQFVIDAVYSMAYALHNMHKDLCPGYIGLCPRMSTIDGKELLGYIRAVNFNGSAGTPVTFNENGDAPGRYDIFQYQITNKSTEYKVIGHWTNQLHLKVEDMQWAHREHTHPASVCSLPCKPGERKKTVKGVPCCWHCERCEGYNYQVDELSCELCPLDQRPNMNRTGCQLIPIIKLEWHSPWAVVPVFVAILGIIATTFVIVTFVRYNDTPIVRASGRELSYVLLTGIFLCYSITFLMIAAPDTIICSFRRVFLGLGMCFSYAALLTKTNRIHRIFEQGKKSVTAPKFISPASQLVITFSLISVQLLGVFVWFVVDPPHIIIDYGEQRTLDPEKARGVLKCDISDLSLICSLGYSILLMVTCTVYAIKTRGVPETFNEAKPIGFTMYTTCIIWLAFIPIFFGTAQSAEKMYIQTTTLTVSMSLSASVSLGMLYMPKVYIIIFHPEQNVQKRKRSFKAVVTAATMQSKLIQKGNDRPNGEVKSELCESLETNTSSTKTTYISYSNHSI
Method: The compounds were tested in the agonist, PAM (in the presence of EC20 concentration of L-Glu) or NAM (with EC80 of L-Glu) modes of forskolin-induced cAMP using T-REx 293 cells expressing the protein of a given receptor.
Figure 4. The activity of compounds 34, 37, 49, 52, 60, 62 and reference drugs MMPIP (a selective NAM of mGlu7 receptor) and AZ12216052 (a PAM of mGlu8 receptor) tested at a concentration of 10 μM in the cAMP accumulation assay in cells expressing mGlu7 and mGlu8 receptors. The percent activity refers to two extreme FRET signals: 0% corresponds to forskolin treatment alone and 100% to maximal FRET signal for the control cells (without any treatment). A/D – agonistic activity; B/E – PAM activity measured in the presence of L-Glu at the EC20 concentration (0.1 mM for mGlu7 receptor, and 1 μM for mGlu8 receptor); C/F – NAM activity measured in the presence of L-Glu at the EC80 concentration (1 mM for mGlu7 receptor, 10 μM for Glu8 receptor).
(§1) Determination of the intracellular cAMP through a homogeneous time-resolved fluorescence (HTRF) cAMP dynamic 2 kit from Cisbio (Codolet, France) was described previously by Chruścicka et al.[91]. Briefly, cells were grown in DMEM supplemented with 10% foetal bovine serum (FBS) (tetracycline free). Forty-eight hours before the experiments, mGlu receptor expression was induced by the addition of 0.75 µg/mL tetracycline. Twenty hours before the experiment, FBS and L-Glu were removed from the medium. Thereafter, the cells were scraped and centrifuged. A cell pellet was suspended in Hanks-HEPES (130 mM NaCl, 5.4 mM KCl, 1.8 mM CaCl2, 0.8 mM MgSO4, 0.9 mM NaH2PO4, 20 mM HEPES, and 3.25 mM glucose; pH 7.4). Then, the cell suspension was incubated in the presence of 10 µM forskolin (or 3 µM forskolin for mGlu7 receptor), the agonist L-glutamate and a compound for 5 min. Next, 10 µl of the cell suspension was mixed with 5 µl of cAMP-d2 conjugate and 5 µL of anti-cAMP cryptate conjugate. After 1 h of incubation at rt, the fluorescence at 620 nm and 665 nm was read (Tecan Infinite M1000). The results were calculated as the 665 nm/620 nm ratio multiplied by 10^4. Each sample was prepared in triplicate.

[2] = biological target: T2, mGlu4 receptor (Homo sapiens, UniProt Q14833); assay: forskolin-stimulated cAMP assay, PAM mode (EC20 of L-Glu), T-REx 293 cells; format: cell-based; conditions: SEM where given; for EC50 / Emax: PAM mode; for EC50: EC20 (3 µM) L-Glu, T-REx 293 cells expressing human mGlu4 receptor; for Emax: T-REx-293, human mGlu4, read-out: GluMax; for Fold shift of L-Glu dose-response curve: in the presence of 10 µM of compound
T2 construct: mGlu4 receptor NM_000841, mGlu7 receptor NM_000844.2, and mGlu8 receptor NM_000845; expressed in transfected cells; host or cells: T-REx 293
T2 sequence (Q14833 33-912): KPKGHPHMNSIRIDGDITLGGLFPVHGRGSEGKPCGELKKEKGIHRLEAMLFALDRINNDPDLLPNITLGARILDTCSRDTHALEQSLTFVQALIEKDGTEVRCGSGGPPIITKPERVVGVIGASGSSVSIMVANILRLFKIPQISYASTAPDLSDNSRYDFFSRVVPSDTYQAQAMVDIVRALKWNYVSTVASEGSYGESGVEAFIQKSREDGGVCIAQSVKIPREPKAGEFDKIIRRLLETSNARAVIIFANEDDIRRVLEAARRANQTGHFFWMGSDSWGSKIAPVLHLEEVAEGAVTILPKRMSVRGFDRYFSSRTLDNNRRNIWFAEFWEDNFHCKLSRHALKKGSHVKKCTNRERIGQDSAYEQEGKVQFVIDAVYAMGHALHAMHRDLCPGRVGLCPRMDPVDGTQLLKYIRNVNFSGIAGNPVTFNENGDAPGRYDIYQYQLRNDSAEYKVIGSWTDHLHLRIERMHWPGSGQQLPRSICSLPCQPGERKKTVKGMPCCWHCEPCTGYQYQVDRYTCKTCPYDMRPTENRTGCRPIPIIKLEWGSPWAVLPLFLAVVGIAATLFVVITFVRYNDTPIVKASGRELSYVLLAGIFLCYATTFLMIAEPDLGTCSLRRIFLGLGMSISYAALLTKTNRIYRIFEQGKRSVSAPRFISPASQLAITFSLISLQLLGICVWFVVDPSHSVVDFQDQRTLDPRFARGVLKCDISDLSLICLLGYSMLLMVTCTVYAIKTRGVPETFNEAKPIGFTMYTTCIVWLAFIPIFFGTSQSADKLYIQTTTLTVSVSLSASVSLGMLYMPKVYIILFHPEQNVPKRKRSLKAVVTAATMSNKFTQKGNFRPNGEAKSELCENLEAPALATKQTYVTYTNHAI
Method: The activity of the compounds was assessed in vitro in a forskolin-stimulated cAMP assay in T-REx 293 cells expressing human mGlu4 receptors in the presence of an EC20 concentration of L-Glu; a PAM was identified if it potentiated cAMP inhibition by the Gi/o-dependent pathway of mGlu4 receptor activation; i.e. if it was able to produce a leftward shift in the potency of the endogenous agonist.
as §1
Statistical calculations were performed using GraphPad Prism 5.04 software (GraphPad Software, La Jolla, CA, USA). The curves were fitted to a 3-parametric logistic equation, allowing for the determination of EC50 values. Each data point was analysed in triplicate.

[3] = system: Salmonella typhimurium strains TA98 and TA100; format: cell-based; conditions: TA98 and TA100, with and without S9, ≤ 30 µM
Method: The primary assessment of the cardiotoxic risk and mutagenic potential of the six selected 1,2,4-oxadiazole derivatives was performed in the hERG channel assay and the mini-AMES test, respectively. The mutagenicity potential was determined in strains TA98 (frameshift mutation) and TA100 (base-pair substitution) of Salmonella typhimurium in the presence and absence of an exogenous metabolic activation system (rat liver S9 fraction) containing mammalian microsomal enzymes.
The Ames microplate fluctuation protocol (MPF) assay was performed with Salmonella typhimurium strains TA98 and TA100, […]. The bacterial strain as well as the exposure and indicator medium were obtained from Xenometrix AG (Allschwil, Switzerland). […] After the addition of indicator medium, each well of the 24-well plate was aliquoted into 48 wells of a 384-well plate.
The occurrence of reversion events to histidine prototrophy was observed as the growth of bacteria in the indicator medium without histidine after 72 h of incubation at 37 °C. Bacterial growth in 384-well plates was visualised by a colour change of medium from violet to yellow due to the addition of pH indicator dye. The absorbance was measured with a microplate reader (EnSpire) at 420 nm. The reference mutagen NQNO (0.5 mM) was used as a positive control in the experiments. The medium control baseline (MCB) was calculated, as derived from the mean number of revertants in the medium control plus one standard deviation.
AMES test was conducted with two Salmonella typhimurium strains TA98 and TA100 in the presence or absence of liver homogenate S9 to simulate the metabolic conversions of tested compounds with liver enzymes. The AMES MPF 98/100 assay from Xenometrix was performed as described by the supplier. Data were analysed with the AMES MPF calculation […]
(also on this page, place not known: TA10 cal culation TA98 - S9 Revertants TA98 + S9 Revertants - S9 Revertants TA100 + S9 Revertants TA98 - S9 Revertants TA98 + S9 Revertants TA100 - S9 Revertants 0 TA100 + S9 Revertants)

[4] = system: Albino Swiss mice; assay: DOI-induced head twitch test (HTR); format: in vivo; conditions: DOI 2.5 mg/kg i.p.
Method: The compounds were dissolved in a small amount of 100% EtOH and then adjusted with 20% cyclodextrin, and the pH was adjusted to 6.0. The investigated compounds were administered intraperitoneally (i.p.) 60 min before the behavioural test. Control drugs i.e. diazepam, clozapine and imipramine (Sigma–Aldrich, St. Louis, USA), were administered i.p. 60 min before the behavioural test. Cyclodextrin (20%) was used as a vehicle. All solutions were prepared immediately prior to the experiments and were administered at a constant volume of 10 ml/kg.
The experiments were performed according to the procedure described in our previous studies[75]^,[80]. Briefly, to habituate mice to the experimental environment, each animal was transferred to a 12 cm (diameter) × 20 cm (height) glass cage lined with sawdust 30 min before treatment. Test compounds were administered intraperitoneally (i.p.) at doses of 2.5, 5, and 10 mg/kg body weight 60 min before the test was performed. The head twitch response (HTR) in mice was induced by DOI (2.5 mg/kg, i.p.). Immediately after treatment, the number of head twitches was counted during a 20 min session. Haloperidol and clozapine were used as the reference compounds at active doses of 0.2 and 5 mg/kg, respectively.

[5] = over the doses 2.5, 5 and 10 mg/kg i.p.
[6] = 2.5 mg/kg i.p., 60 min before test
[7] = 10 mg/kg i.p., 60 min before test

SMILES	agonistic activity at mGlu8 receptor [1]	EC50 [2] [nM]	Emax [2] [%]	Fold shift of L-Glu dose-response curve [2]	mutagenic activity (mini-AMES) [3]	effect on DOI-induced HTR [4, 5]	effect on DOI-induced HTR [4, 6]	effect on DOI-induced HTR ([4]; 5 mg/kg i.p., 60 min before test)	effect on DOI-induced HTR [4, 7]
O=C(Nc1ccc(-c2noc(-c3ccccc3Cl)n2)c(Cl)c1)c1ccccn1 [Compound 52, N-(3-chloro-4-(5-(2-chlorophenyl)-1,2,4-oxadiazol-3-yl)phenyl)picolinamide]	direct agonistic activity	282	123	8.03 (0.76)^d	no mutagenic potential	significant anxiolytic- and antipsychotic-like properties; also recorded: at all doses significantly reduced; also recorded: Clear dose-response effects	–	–	–
O=C(Nc1ccc(-c2noc(-c3ccccc3Cl)n2)c(C(F)(F)F)c1)c1ccccn1 [Compound 60]	direct agonistic activity	390	120	2.94 (0.1)^d	no mutagenic potential	significant anxiolytic- and antipsychotic-like properties	significant reductions in the HTR score	not statistically significant	significant reductions in the HTR score
COc1cc(NC(=O)c2ccccn2)ccc1-c1noc(-c2ccccc2Cl)n1 [Compound 34]	direct agonistic activity	656	114	13.4 (2.00)^d	no mutagenic potential	significant anxiolytic- and antipsychotic-like properties	statistically significant effect; also recorded: significant reductions in the HTR score	–	statistically significant effect; also recorded: significant reductions in the HTR score
COc1cc(NC(=O)c2ccccn2)ccc1-c1noc(-c2ccccc2F)n1 [Compound 37]	direct agonistic activity	393	116	3.68 (0.19)^d	no mutagenic potential	significant anxiolytic- and antipsychotic-like properties; also recorded: reversed the DOI-induced effect at all investigated doses; also recorded: dose-dependent reverse effects	–	–	–
